From US20220378715A1, “USE OF CANNABIDIOL PREPARATIONS IN THE TREATMENT OF ABSENCE EPILEPSY” (GW Research Limited, priority 2019, published 2022)

Columns and labels:
Type in all cases: in vivo, rat
WAG/Rij rats [1] = experiment: Elevated plus maze (EPM); conditions: 10 and 100 mg/Kg; p=0.67; FIG. 3B
Method: (§1) To test the effects bCBD and sCBD on epileptic comorbidities, separate groups (n=10) of treated and vehicle WAG/Rij rats at 6 months of age were subjected to several behavioural tests (see below—cohort 2).
(§2) All behavioural tests were performed 1-hour post-dose in the morning. All experimental groups were subjected to a single test per day. […].
The EPM consists of 2 opposing open arms and 2 opposing closed arms of the same size (45 cm×10 cm) with 10 cm high walls connected by a central platform (10×10 cm) and elevated 80 cm above the floor. Rats are positioned in the central platform facing a closed arm and the number of entries into, time spent on each arm, and central platform are measured.
The maze was systematically cleaned (Disposable towels and 70% ethanol solution) to remove olfactory cues, after each animal was tested. The shorter the time spent in open arms and central platform the higher the anxiety is and vice versa. Mean velocity and total distance moved were also measured and examined for every experimental group.

WAG/Rij rats [2] = experiment: EEG recording of spike wave discharges (SWDs), established absence seizures; conditions: 10 and 100 mg/Kg i.p. twice daily, 14 days; vs control (vehicle); ANOVA across groups; FIG. 2A
Method: The effects of botanically derived purified CBD (>98%) (bCBD) and synthetic CBD (sCBD) at 10 and 100 mg/Kg, i.p. twice daily, for both drugs, was assessed in this animal model, by EEG-recordings and behavioural tests.
WAG/Rij rats were treated with bCBD or sCBD (10 and 100 mg/Kg, i.p. twice daily, for both drugs) over a chronic test period of at least 14 days.
Drug treatment was started at about 6 months of age (n=10 for every dose and drug group) and continued for 14 consecutive days, when experimental tests were performed (treatment was also continued during the experimental procedure phase. Age-matched control (vehicle) WAG/Rij rats (n =10) were kept under the same housing conditions over the same period of time with vehicle (1:1:18, Ethanol:kolliphor HS15:saline; i.p.).
WAG/Rij rats (n=10) underwent 2 EEG-recording periods in 2 consecutive days (one session per day). Every recording session lasted 3 hours and was performed 1 hour after drug administration. […]
All animals were allowed at least 1 week of recovery and handled twice a day. […] The blinded quantification of absence seizures was based on the number and the duration of EEG Spike Wave Discharges (SWDs).
All statistical procedures were performed using GraphPad Prism 6.0 (GraphPad Software, Inc., La Jolla, CA, USA). EEG recordings were subdivided into 30-min epochs, and the duration and number of SWDs were evaluated separately.

WAG/Rij rats [3] = experiment: Novel object recognition test (nORT)
Method: as §1, §2
The nORT was performed as previously described by Bartolini et al. with some minor modifications. Briefly, three days before nORT, rats were exposed to a habituation trial lasting 6 min.
During this trial, each rat was allowed to freely explore an opaque open field Plexiglas box (70×70×30 cm). To investigate short-term memory, in the familiarization trial (T1) two identical objects (wood cubes) were located in two opposite corners of the box. Each rat was placed in the centre of the open field, facing away from the sample objects and left to explore freely the objects for a maximum of 5 min, before returning to its home cage. The familiarization trial ended when the rat completed 20 s of exploration for each object.
Exploration was considered directing the nose at a distance <2 cm to the object and/or touching it with the nose and sniffing. After a retention interval of 60 min the test phase (T2) was conducted.
After this session, the rat returned to home cage. The time spent exploring the familiar (F) and the novel object (N) was recorded separately and a discrimination index (DI) was calculated (DI=N−F/N+F). To avoid olfactory cues both the objects and the box were cleaned with 70% ethanol solution after each session.
Furthermore, to avoid place preference, the role (familiar or novel object) and the position of the two objects during T2 were randomly changed. Total distance moved (cm) was also evaluated and analysed for every experimental group in order to check for locomotor deficits.

WAG/Rij rats [4] = experiment: Three chamber test (TCT), sociability
Method: as §1, §2
Three-chambered approach (sociability) is an automated, widely used and well validated assay that compares time that the subject (rodent) spends with a novel animal versus time spent with a non-social inanimate object.
The three-chamber apparatus is a non-transparent white plastic box with two transparent acrylic partitions with a rectangular opening. The acrylic partitions divide the box into three chambers (left, centre, and right), illuminated at 120 lux. The animal is placed in the middle chamber with the dividers closed to allow it to explore the middle chamber for ten minutes.
After this habituation period, an unfamiliar adult animal is placed inside a small wire cage in one of the side chambers. An identical wire cage with an inanimate object is placed in the opposite chamber. The dividers are then raised, allowing the test subject to move freely throughout all three chambers of the apparatus over a 10-minute test session. […]

WAG/Rij rats [5] = experiment: Forced swimming test (FST); conditions: for immobility time: sub-chronic, vs control
Method: as §1, §2
The FST, is currently the most reliable method to rapidly screen compounds for antidepressant activity in rodents; we used an FST protocol previously standardized in our laboratories for WAG/Rij rats.
Briefly, rats were placed individually for 6 min into a glass cylinder (height 47 cm, diameter 38 cm) filled with 38 cm of water maintained between 23° C. and 25° C. The total duration of immobility (immobility time) was recorded during the last 4 min of a 6-min testing period. The criterion for immobility and passive swimming (immobility time) was floating vertically in the water while making only those movements essential to keep the head above the surface of the water, which is directly proportional to depressive-like behaviour. At the end of the FST, rats were removed and dried with a towel before being returned to their home cage. Mean swimming velocity and total distance moved were also measured and examined for every experimental group in order to check for any obvious locomotor impairment.

WAG/Rij rats [6] = experiment: Passive avoidance (PA)
Method: as §1, §2
Rats were tested in a step-through type passive avoidance apparatus (Ugo Basile, Italy, model 40,550), measuring 57×27×30 cm, consisting of a cage divided into two chambers (light and dark) by a sliding door.
The PA test was carried out over two successive days. Briefly, on day one (pre-acquisition trial or habituation), rats were introduced individually in the light compartment and allowed to freely explore the cage for 5 min. The acquisition or conditioning trial was conducted 15 min after habituation. Rats were individually introduced in the light compartment.; following a 30 s adaptation time, the sliding door between the two compartments was opened. When rats completely entered into the dark compartment, the sliding door was automatically closed and an electrical foot-shock (0.5 mA for 3 s) was delivered via the floor grid.
The latency to enter (s) in the dark compartment was detected and analysed. The retention or memory trial was evaluated 24 h after the acquisition trial, by recording their latency to enter (s) in the dark compartment. The latency to enter in the dark compartment was directly linked to the retention memory: the better the memory, the greater the latency.

WAG/Rij rats [7] = experiment: Rotarod test (RT); conditions: 10 and 100 mg/Kg; p=0.9455; data not shown
Method: The Rotarod apparatus (Ugo Basile, Varese, Italy) consists of a base platform and a rotating rod with a diameter of 6 cm and a non-slippery surface. The integrity of motor coordination is assessed on the basis of the time the animals keep their balance on the accelerating rotating rod up to a maximum of 10 min (600 s).
Briefly, rats were pre-trained for 2 days in order to reach a stable performance. After the training, the rotation of the rod was gradually accelerated from 5 rpm to 50 rpm. After a maximum of 3 falls from the rod, the test is suspended and the time is recorded, the result is a mean of the 3 measures.

## C=C(C)[C@@H]1CCC(C)=C[C@H]1c1c(O)cc(CCCCC)cc1O [sCBD, cannabidiol]
WAG/Rij rats [1]
  anxiety-like behaviour: not affected
WAG/Rij rats [2]
  mean number of spike wave discharges (nSWDs): did not significantly (F4,45=2.572; p=0.0504; n=10 per group) alter
WAG/Rij rats [3]; 100 mg/Kg, vs vehicle
  discrimination index (DI): significantly increased
WAG/Rij rats [3]; 10 and 100 mg/Kg, ANOVA across groups, FIG. 3D
  discrimination index (DI), overall: significantly (F4,45=6.009; p=0.0006; n=10 per group) affect
WAG/Rij rats [3]; lower dose (10 mg/Kg), vs control
  discrimination index (DI): did not significantly
WAG/Rij rats [4]; 100 mg/Kg, sub-chronic
  time spent in the novel rat chamber vs the novel object chamber: significantly more time in the novel rat chamber
WAG/Rij rats [4]; higher dose (100 mg/Kg), vs control rats, p<0.0001
  time spent sniffing the novel rats: significantly increased
WAG/Rij rats [5]; 10 and 100 mg/Kg, vs control (vehicle), ANOVA across groups, FIG. 3A
  immobility time, overall: significantly (F4,45=12.29; p<0.0001; n=10 per group) reduce
WAG/Rij rats [5]; higher dose (100 mg/Kg i.p. twice daily)
  immobility time: significant reduction
WAG/Rij rats [5]; lower dose (10 mg/Kg i.p. twice daily)
  immobility time: not effective
WAG/Rij rats [6]; conditioning trial, 10 and 100 mg/Kg, data not shown
  latency to enter in the dark compartment: no significant effect
WAG/Rij rats [6]; retention session, higher dose (100 mg/Kg), vs control
  latency to enter in the dark compartment: did not significantly modify
WAG/Rij rats [6]; retention session, lower dose (10 mg/Kg), vs control
  latency to enter in the dark compartment: did not significantly modify
WAG/Rij rats [7]
  rotarod test results (motor coordination): did not influence
